Measurements as given in patent US11180504B2 (ORCHID PHARMA LTD., priority 2016, dated 2021).
Converted amounts (≈) assume the structure as drawn.

Assays:
[1] = system: carbapenemase producing K. pneumoniae; assay: MIC by broth micro-dilution (CLSI), carbapenemase producing K. pneumoniae; format: cell-based, Klebsiella pneumoniae; conditions: Klebsiella pneumoniae, ATCCBAA1705, KPC-2 K. pneumoniae ATCC BAA-1705; read-out: MIC
[2] = system: extended spectrum β lactamase (ESBL) SHV18 producing Klebsiella pneumoniae; assay: MIC by broth micro-dilution (CLSI), ESBL SHV18 producing K. pneumoniae; format: cell-based; conditions: Klebsiella pneumoniae, ATCC700603, 22 h, ESBL +ve (SHV-18) K. pneumoniae ATCC700603; read-out: MIC
[3] = system: carbapenem sensitive Pseudomonas aeruginosa; assay: MIC by broth micro-dilution (CLSI), carbapenem sensitive P. aeruginosa; format: cell-based; conditions: Pseudomonas aeruginosa, ATCC27853, Meropenem susceptible P. aeruginosa ATCC27853; read-out: MIC
[4] = system: carbapenem sensitive Escherichia coli; assay: MIC by broth micro-dilution (CLSI), carbapenem sensitive E. coli; format: cell-based; conditions: Escherichia coli, ATCC25922, ESBL −ve E. coli ATCC25922; read-out: MIC
[5] = system: methicillin-sensitive Staphylococcus aureus; assay: MIC by broth micro-dilution (CLSI), methicillin-sensitive S. aureus; format: cell-based; conditions: Staphylococcus aureus, ATCC 29213 / MSSA, MSSA S. aureus ATCC29213; read-out: MIC

| Structure (SMILES) | MIC [1] [µg/mL] | MIC [2] [µg/mL] | MIC [3] [µg/mL] | MIC [4] [µg/mL] | MIC [5] [µg/mL] |
| --- | --- | --- | --- | --- | --- |
| C[C@@H](NS(=O)(=O)C(F)(F)F)[C@H]1C(=O)N2C(C(=O)O)=C(S[C@@H]3CN[C@H](C(=O)N4CCC(O)CC4)C3)[C@H](C)[C@H]12 [Example 30] | 8 (≈ 14 µM) | 8 (≈ 14 µM) | 128 (≈ 224 µM) | 1 (≈ 1.75 µM) | 2 (≈ 3.51 µM) |
| C[C@@H](NC(=O)C(F)F)[C@H]1C(=O)N2C(C(=O)O)=C(S[C@@H]3CN[C@H](C(=O)N(C)C)C3)[C@H](C)[C@H]12 [Example 32] | 1 (≈ 2.17 µM) | 1 (≈ 2.17 µM) | 32 (≈ 69.5 µM) | 0.5 (≈ 1.09 µM) | 1 (≈ 2.17 µM) |
| C[C@@H](NS(=O)(=O)c1cccs1)[C@H]1C(=O)N2C(C(=O)O)=C(S[C@@H]3CN[C@H](C(=O)N(C)C)C3)[C@H](C)[C@@H]12 [Example 33] | 16 (≈ 30.3 µM) | 32 (≈ 60.5 µM) | > 128 | 4 (≈ 7.57 µM) | 4 (≈ 7.57 µM) |
| C[C@@H](NS(=O)(=O)C(F)(F)F)[C@H]1C(=O)N2C(C(=O)O)=C(S[C@@H]3CN[C@H](C(=O)N4CC[C@@H](O)C4)C3)[C@H](C)[C@H]12 [Example 34] | 8 (≈ 14.4 µM) | 8 (≈ 14.4 µM) | 128 (≈ 230 µM) | 1 (≈ 1.8 µM) | 4 (≈ 7.19 µM) |
| C[C@@H](NC(=O)C(F)F)[C@H]1C(=O)N2C(C(=O)O)=C(S[C@@H]3CN[C@H](C(=O)N4CCSCC4)C3)[C@H](C)[C@H]12 [Example 35] | 2 to 4 (≈ 3.86 to 7.71 µM) | 4 (≈ 7.71 µM) | > 128 | 1 (≈ 1.93 µM) | 1 (≈ 1.93 µM) |
| COC(=S)N[C@H](C)[C@H]1C(=O)N2C(C(=O)O)=C(S[C@@H]3CN[C@H](C(=O)N(C)C)C3)[C@H](C)[C@H]12 [Example 36] | 16 (≈ 35 µM) | 16 (≈ 35 µM) | 128 (≈ 280 µM) | 2 (≈ 4.38 µM) | 1 (≈ 2.19 µM) |
| C[C@@H](NC(=O)C(F)F)[C@H]1C(=O)N2C(C(=O)O)=C(S[C@@H]3CN[C@H](CNS(N)(=O)=O)C3)[C@H](C)[C@H]12 [Example 38] | 2 to 4 (≈ 4.02 to 8.04 µM) | 1 (≈ 2.01 µM) | 32 to 64 (≈ 64.3 to 129 µM) | 1 (≈ 2.01 µM) | 0.25 (≈ 0.502 µM) |
| C[C@@H](NC(=O)CC(F)(F)F)[C@H]1C(=O)N2C(C(=O)O)=C(S[C@@H]3CN[C@H](C(=O)N(C)C)C3)[C@H](C)[C@H]12 [Example 40] | 4 to 8 (≈ 8.12 to 16.2 µM) | 8 (≈ 16.2 µM) | > 128 | 1 (≈ 2.03 µM) | 4 (≈ 8.12 µM) |
| C[C@@H](NC(=O)OCC(F)F)[C@H]1C(=O)N2C(C(=O)O)=C(S[C@@H]3CN[C@H](C(=O)N(C)C)C3)[C@H](C)[C@H]12 [Example 41] | 16 (≈ 32.6 µM) | 16 (≈ 32.6 µM) | > 128 | 1 (≈ 2.04 µM) | 2 (≈ 4.08 µM) |
| C[C@@H](NC(=O)C(F)F)[C@H]1C(=O)N2C(C(=O)O)=C(S[C@@H]3CN[C@H](C(=O)N4CC[S+]([O-])CC4)C3)[C@H](C)[C@H]12 [Example 42] | 8 (≈ 15 µM) | 1 (≈ 1.87 µM) | 128 (≈ 239 µM) | 1 (≈ 1.87 µM) | 2 (≈ 3.74 µM) |
| C[C@@H](NC(=O)CN)[C@H]1C(=O)N2C(C(=O)O)=C(S[C@@H]3CN[C@H](C(=O)N(C)C)C3)[C@H](C)[C@H]12 [Example 44] | 8 (≈ 18.2 µM) | 4 (≈ 9.1 µM) | 16 (≈ 36.4 µM) | 4 (≈ 9.1 µM) | 32 (≈ 72.8 µM) |
| C[C@@H](NC(=O)C(F)F)[C@H]1C(=O)N2C(C(=O)O)=C(S[C@@H]3CN[C@H](C(=O)N4CC[N+](C)(C)CC4)C3)[C@H](C)[C@H]12 [Example 45] | 16 | 4 | 4 | 1 | 1 |
| C[C@@H](NC(=O)C(F)F)[C@H]1C(=O)N2C(C(=O)O)=C(S[C@@H]3CN[C@H](C(=O)N4CCS(=O)(=O)CC4)C3)[C@H](C)[C@H]12 [Example 49] | > 128 | 2 (≈ 3.63 µM) | > 128 | 1 (≈ 1.82 µM) | 2 (≈ 3.63 µM) |
| C[C@@H](NC(=O)OCC(F)(F)F)[C@H]1C(=O)N2C(C(=O)O)=C(S[C@@H]3CN[C@H](CNS(N)(=O)=O)C3)[C@H](C)[C@H]12 [Example 52] | > 128 | 128 (≈ 235 µM) | > 128 | 8 (≈ 14.7 µM) | 1 (≈ 1.83 µM) |
| C[C@@H](NS(=O)(=O)N(C)C)[C@H]1C(=O)N2C(C(=O)O)=C(S[C@@H]3CN[C@H](C(=O)N(C)C)C3)[C@H](C)[C@H]12 [Example 57] | 128 (≈ 261 µM) | 16 (≈ 32.7 µM) | > 128 | 4 (≈ 8.17 µM) | 32 (≈ 65.4 µM) |
| C[C@@H](NC(=O)[C@H]1CCCO1)[C@H]1C(=O)N2C(C(=O)O)=C(S[C@@H]3CN[C@H](C(=O)N(C)C)C3)[C@H](C)[C@H]12 [Example 58] | > 128 | > 128 | > 128 | 16 (≈ 33.3 µM) | 32 (≈ 66.6 µM) |
| C[C@@H](N)C(=O)N[C@H](C)[C@H]1C(=O)N2C(C(=O)O)=C(S[C@@H]3CN[C@H](C(=O)N(C)C)C3)[C@H](C)[C@H]12 [Example 59] | > 128 | 16 (≈ 35.3 µM) | 32 (≈ 70.6 µM) | 2 (≈ 4.41 µM) | 32 (≈ 70.6 µM) |
| C[C@@H](NC(=O)CO)[C@H]1C(=O)N2C(C(=O)O)=C(S[C@@H]3CN[C@H](C(=O)N(C)C)C3)[C@H](C)[C@H]12 [Example 60] | 64 (≈ 145 µM) | 32 (≈ 72.6 µM) | > 128 | 16 (≈ 36.3 µM) | 32 (≈ 72.6 µM) |
| C[C@@H](NC(=O)C(C)(F)F)[C@H]1C(=O)N2C(C(=O)O)=C(S[C@@H]3CN[C@H](C(=O)N(C)C)C3)[C@H](C)[C@H]12 [Example 61] | 16 (≈ 33.7 µM) | 16 (≈ 33.7 µM) | > 128 | 1 (≈ 2.11 µM) | 1 (≈ 2.11 µM) |

Other lines, results leading:

| MIC [1] [µg/mL] | MIC [2] [µg/mL] | MIC [3] [µg/mL] | MIC [4] [µg/mL] | MIC [5] [µg/mL] | Structure (SMILES) |
| --- | --- | --- | --- | --- | --- |
| > 128 | 8 (≈ 14.4 µM) | 128 (≈ 230 µM) | 1 (≈ 1.8 µM) | 4 (≈ 7.19 µM) | C[C@@H](NS(=O)(=O)C(F)(F)F)[C@H]1C(=O)N2C(C(=O)O)=C(S[C@@H]3CN[C@H](C(=O)N4CCOCC4)C3)[C@H](C)[C@H]12 [Example 29] |
| 4 (≈ 8.07 µM) | 16 (≈ 32.3 µM) | > 128 | 4 (≈ 8.07 µM) | 16 (≈ 32.3 µM) | CC(C)C[C@H](N)C(=O)N[C@H](C)[C@H]1C(=O)N2C(C(=O)O)=C(S[C@@H]3CN[C@H](C(=O)N(C)C)C3)[C@H](C)[C@H]12 [Example 31] |
| 16 (≈ 29.4 µM) | 1 (≈ 1.84 µM) | > 128 | 1 (≈ 1.84 µM) | 16 (≈ 29.4 µM) | C[C@@H](NC(=O)C(F)F)[C@H]1C(=O)N2C(C(=O)O)=C(S[C@@H]3CN[C@H](C(=O)N4CCC(C(=O)O)CC4)C3)[C@H](C)[C@H]12 [Example 37] |
| 16 | 16 | 16 | 4 | 16 | C[C@@H](NS(C)(=O)=O)[C@H]1C(=O)N2C(C(=O)O)=C(S[C@@H]3CN[C@H](C(=O)N4CC[N+](C)(CC(N)=O)CC4)C3)[C@H](C)[C@H]12 [Example 39] |
| 8 (≈ 15.5 µM) | 4 (≈ 7.76 µM) | 64 (≈ 124 µM) | 1 (≈ 1.94 µM) | 2 (≈ 3.88 µM) | C[C@@H](NC(=O)C(F)F)[C@H]1C(=O)N2C(C(=O)O)=C(S[C@@H]3CN[C@H](C(=O)N4CCN(C)CC4)C3)[C@H](C)[C@H]12 [Example 43] |
| 8 | 4 | 16 | 1 | 1 | C[C@@H](NC(=O)C(F)F)[C@H]1C(=O)N2C(C(=O)O)=C(S[C@@H]3CN[C@H](C(=O)N4CC[N+](C)(CC(N)=O)CC4)C3)[C@H](C)[C@H]12 [Example 46] |
| 64 (≈ 126 µM) | 128 (≈ 252 µM) | > 128 | 2 (≈ 3.93 µM) | 2 (≈ 3.93 µM) | C[C@@H](NC(=O)OCC(F)(F)F)[C@H]1C(=O)N2C(C(=O)O)=C(S[C@@H]3CN[C@H](C(=O)N(C)C)C3)[C@H](C)[C@H]12 [Example 47] |
| 64 (≈ 156 µM) | 1 (≈ 2.44 µM) | 8 (≈ 19.5 µM) | 0.5 (≈ 1.22 µM) | 16 (≈ 39.1 µM) | C[C@@H](NC=N)[C@H]1C(=O)N2C(C(=O)O)=C(S[C@@H]3CN[C@H](C(=O)N(C)C)C3)[C@H](C)[C@H]12 [Example 48] |
| 32 (≈ 60.2 µM) | 32 (≈ 60.2 µM) | > 128 | 4 (≈ 7.52 µM) | 8 (≈ 15 µM) | C[C@H](NS(C)(=O)=O)C(=O)N[C@H](C)[C@H]1C(=O)N2C(C(=O)O)=C(S[C@@H]3CN[C@H](C(=O)N(C)C)C3)[C@H](C)[C@H]12 [Example 51] |
| > 128 | > 128 | > 128 | 8 (≈ 16.6 µM) | 1 (≈ 2.08 µM) | CO/N=C(\C)C(=O)N[C@H](C)[C@H]1C(=O)N2C(C(=O)O)=C(S[C@@H]3CN[C@H](C(=O)N(C)C)C3)[C@H](C)[C@H]12 [Example 54] |
| 16 (≈ 34.1 µM) | 16 (≈ 34.1 µM) | 64 (≈ 136 µM) | 8 (≈ 17 µM) | 64 (≈ 136 µM) | C[C@@H](NC(=O)[C@H](N)CO)[C@H]1C(=O)N2C(C(=O)O)=C(S[C@@H]3CN[C@H](C(=O)N(C)C)C3)[C@H](C)[C@H]12 [Example 56] |
| 8 to 16 (≈ 15.5 to 31 µM) | 16 to 32 (≈ 31 to 61.9 µM) | > 128 | 1 to 2 (≈ 1.94 to 3.87 µM) | 8 to 16 (≈ 15.5 to 31 µM) | CCS(=O)(=O)CC(=O)N[C@H](C)[C@H]1C(=O)N2C(C(=O)O)=C(S[C@@H]3CN[C@H](C(=O)N(C)C)C3)[C@H](C)[C@H]12 [Example 63] |
| 8 (≈ 16.7 µM) | 8 (≈ 16.7 µM) | 64 (≈ 134 µM) | 1 to 2 (≈ 2.09 to 4.18 µM) | 2 (≈ 4.18 µM) | C[C@@H](NC(=O)C(F)(F)F)[C@H]1C(=O)N2C(C(=O)O)=C(S[C@@H]3CN[C@H](C(=O)N(C)C)C3)[C@H](C)[C@H]12 [Example 64] |
